pIC50: −log10 of the molar value.
Columns and labels:
ErbB2 WT = ErbB2 WT (Homo sapiens (Human), UniProt P04626); assay: ErbB Enzyme Assay (HTRF KinEASE-TK), Assay 2; format: biochemical; details: ErbB2 WT enzyme
EGFR = EGFR (Homo sapiens (Human), UniProt P00533); assay: ErbB Enzyme Assay (HTRF KinEASE-TK), Assay 3; format: biochemical; details: EGFR enzyme
[1] = molecular target: ErbB2 with Exon 20 YVMA insertion (HER2-YVMA) (Homo sapiens (Human), UniProt P04626, INS775YVMA); assay: Cellular Phosphorylation Assay, Assay 4 (constitutive ErbB2 phosphorylation, NIH 3T3 cells); format: cell-based; details: ErbB2 YVMA phosphorylation
EGFR wild type (EGFR WT) = EGFR wild type (EGFR WT) (Homo sapiens (Human), UniProt P00533); assay: Cellular Phosphorylation Assay, Assay 5 (EGF-stimulated EGFR phosphorylation, NIH 3T3 cells); format: cell-based; details: EGF-stimulated EGFR WT phosphorylation
BCRP = BCRP (Homo sapiens (Human), UniProt Q9UNQ0); assay: BCRP MDCKII efflux assay (Assay 7); format: in vitro ADME; details: dog; efflux ratio Papp(B-A)/Papp(A-B), BCRP MDCKII cells; read-out: Assay 7 Pe Ratio
Procedure: Assay conditions included with and without the BCRP-specific inhibitor, KO143, at a concentration of 0.3 μM to ascertain the contribution of BCRP to the efflux value of the test compound.
Final organic concentration in the assay was 1%.

MDR1 (P-gp) = MDR1 (P-gp) (Homo sapiens (Human), UniProt P08183); assay: in vitro; details: pig, LLC-PK1

Chain of BCRP (Q9UNQ0 whole entry): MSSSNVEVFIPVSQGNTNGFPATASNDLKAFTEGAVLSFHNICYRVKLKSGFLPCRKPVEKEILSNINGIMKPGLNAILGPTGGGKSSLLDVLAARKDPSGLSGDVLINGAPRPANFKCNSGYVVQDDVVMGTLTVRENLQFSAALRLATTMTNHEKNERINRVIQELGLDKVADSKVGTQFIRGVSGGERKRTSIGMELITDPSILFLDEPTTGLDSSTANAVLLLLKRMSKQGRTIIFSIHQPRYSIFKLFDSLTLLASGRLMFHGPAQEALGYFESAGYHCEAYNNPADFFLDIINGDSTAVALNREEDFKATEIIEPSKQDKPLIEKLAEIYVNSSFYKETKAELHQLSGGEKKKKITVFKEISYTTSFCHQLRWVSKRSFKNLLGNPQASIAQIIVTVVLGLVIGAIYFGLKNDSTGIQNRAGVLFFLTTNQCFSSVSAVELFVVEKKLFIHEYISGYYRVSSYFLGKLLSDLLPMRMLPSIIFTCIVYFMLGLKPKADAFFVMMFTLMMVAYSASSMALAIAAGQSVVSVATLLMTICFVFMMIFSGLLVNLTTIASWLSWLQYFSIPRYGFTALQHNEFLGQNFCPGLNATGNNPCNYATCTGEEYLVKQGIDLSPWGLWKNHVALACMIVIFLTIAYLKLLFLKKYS
Chain of ErbB2 with Exon 20 YVMA insertion (HER2-YVMA) (P04626 other isoform, or with tags, fused parts or gaps ins YVMA behind 775): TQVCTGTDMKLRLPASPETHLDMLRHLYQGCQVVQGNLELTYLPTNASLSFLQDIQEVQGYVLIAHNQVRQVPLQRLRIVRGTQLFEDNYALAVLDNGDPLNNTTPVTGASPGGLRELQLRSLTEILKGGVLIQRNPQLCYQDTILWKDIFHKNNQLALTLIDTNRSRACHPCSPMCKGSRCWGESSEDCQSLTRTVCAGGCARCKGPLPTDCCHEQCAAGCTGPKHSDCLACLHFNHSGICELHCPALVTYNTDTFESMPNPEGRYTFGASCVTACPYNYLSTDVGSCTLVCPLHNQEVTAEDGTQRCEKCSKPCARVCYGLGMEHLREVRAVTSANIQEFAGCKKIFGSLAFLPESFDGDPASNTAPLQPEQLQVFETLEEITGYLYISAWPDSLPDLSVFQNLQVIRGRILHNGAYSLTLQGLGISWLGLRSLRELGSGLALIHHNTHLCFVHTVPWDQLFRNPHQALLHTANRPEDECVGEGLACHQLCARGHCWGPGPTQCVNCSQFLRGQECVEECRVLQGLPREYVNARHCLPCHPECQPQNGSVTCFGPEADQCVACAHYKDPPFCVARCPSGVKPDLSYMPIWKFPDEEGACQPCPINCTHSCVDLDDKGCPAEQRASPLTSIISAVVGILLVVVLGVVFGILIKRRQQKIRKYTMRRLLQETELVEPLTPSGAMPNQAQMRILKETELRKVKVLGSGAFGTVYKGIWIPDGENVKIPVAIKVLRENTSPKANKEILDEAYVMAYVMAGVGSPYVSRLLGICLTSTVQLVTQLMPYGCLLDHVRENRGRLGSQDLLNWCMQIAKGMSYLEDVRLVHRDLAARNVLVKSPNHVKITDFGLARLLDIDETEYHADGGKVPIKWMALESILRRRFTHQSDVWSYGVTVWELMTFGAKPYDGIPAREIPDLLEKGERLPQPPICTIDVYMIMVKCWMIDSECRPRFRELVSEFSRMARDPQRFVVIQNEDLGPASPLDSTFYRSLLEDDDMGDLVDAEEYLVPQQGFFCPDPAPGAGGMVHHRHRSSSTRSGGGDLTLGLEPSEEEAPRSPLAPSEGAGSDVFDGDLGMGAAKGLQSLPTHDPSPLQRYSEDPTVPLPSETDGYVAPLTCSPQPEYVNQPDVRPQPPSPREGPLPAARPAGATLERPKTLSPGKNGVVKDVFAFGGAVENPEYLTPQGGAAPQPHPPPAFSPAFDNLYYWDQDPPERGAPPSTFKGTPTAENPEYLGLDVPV
Chain of ErbB2 WT (P04626 23-1255): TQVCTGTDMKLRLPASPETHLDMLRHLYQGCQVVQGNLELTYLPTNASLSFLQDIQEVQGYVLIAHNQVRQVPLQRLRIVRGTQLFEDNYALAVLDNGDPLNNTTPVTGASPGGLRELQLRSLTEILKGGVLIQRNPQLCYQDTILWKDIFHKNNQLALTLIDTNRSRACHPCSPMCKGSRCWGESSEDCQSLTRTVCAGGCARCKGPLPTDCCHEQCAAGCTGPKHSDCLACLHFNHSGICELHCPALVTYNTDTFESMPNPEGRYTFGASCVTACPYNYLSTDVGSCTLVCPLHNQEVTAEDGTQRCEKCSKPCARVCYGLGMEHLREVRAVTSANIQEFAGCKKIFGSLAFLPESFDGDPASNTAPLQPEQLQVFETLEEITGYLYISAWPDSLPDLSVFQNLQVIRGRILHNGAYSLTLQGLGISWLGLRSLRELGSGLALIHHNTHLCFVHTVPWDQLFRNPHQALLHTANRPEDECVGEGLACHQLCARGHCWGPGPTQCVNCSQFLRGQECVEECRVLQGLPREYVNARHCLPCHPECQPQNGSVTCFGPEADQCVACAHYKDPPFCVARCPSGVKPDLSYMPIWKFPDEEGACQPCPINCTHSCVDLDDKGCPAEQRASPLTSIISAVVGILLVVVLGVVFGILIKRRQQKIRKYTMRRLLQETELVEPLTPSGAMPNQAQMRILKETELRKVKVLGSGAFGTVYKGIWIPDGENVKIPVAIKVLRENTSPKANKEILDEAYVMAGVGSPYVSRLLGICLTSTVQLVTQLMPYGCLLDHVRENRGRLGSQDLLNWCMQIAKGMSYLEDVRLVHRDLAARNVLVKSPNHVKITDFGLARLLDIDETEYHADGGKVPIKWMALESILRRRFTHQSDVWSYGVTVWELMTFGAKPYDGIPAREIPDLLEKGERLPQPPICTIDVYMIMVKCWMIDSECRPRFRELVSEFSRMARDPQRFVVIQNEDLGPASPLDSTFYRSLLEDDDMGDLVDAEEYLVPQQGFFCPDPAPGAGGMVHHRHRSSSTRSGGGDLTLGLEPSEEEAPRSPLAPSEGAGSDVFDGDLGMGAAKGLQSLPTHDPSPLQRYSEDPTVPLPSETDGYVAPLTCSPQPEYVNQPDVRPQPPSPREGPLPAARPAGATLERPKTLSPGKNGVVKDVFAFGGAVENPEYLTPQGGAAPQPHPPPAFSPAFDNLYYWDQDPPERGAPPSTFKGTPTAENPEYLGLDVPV
Chain of EGFR (P00533 25-1210): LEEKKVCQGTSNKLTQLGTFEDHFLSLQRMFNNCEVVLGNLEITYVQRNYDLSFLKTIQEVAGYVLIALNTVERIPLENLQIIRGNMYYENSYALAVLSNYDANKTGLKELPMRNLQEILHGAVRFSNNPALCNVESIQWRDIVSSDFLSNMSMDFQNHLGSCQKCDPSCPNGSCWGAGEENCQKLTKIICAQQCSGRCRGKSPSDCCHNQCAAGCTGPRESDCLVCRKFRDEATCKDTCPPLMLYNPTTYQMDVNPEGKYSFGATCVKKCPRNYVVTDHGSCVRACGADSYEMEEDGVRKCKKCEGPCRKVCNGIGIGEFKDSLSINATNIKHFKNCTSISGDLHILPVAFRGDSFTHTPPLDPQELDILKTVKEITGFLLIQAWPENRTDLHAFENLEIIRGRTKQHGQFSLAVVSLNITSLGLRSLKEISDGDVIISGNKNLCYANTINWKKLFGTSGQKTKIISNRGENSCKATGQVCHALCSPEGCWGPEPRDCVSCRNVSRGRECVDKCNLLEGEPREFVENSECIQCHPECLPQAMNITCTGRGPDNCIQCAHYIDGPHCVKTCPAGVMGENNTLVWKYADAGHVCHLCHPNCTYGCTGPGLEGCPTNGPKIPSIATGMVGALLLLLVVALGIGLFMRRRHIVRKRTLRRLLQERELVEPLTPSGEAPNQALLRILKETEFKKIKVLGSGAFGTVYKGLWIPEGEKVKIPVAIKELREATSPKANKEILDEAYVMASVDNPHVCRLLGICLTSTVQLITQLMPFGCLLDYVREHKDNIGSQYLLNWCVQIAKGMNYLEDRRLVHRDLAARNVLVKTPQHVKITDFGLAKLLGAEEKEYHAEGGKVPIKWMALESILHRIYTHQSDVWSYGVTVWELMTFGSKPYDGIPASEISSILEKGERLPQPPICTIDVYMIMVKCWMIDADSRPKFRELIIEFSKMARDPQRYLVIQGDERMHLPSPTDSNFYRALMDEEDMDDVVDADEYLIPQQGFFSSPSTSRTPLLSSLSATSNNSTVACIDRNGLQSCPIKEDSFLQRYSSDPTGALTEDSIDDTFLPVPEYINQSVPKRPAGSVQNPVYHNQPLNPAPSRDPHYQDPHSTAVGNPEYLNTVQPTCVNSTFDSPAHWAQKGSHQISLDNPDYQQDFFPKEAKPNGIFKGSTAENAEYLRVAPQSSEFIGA

C=CC(=O)N1C[C@H]2CC[C@@H]1CN2c1ccc2ncnc(Nc3ccc(Oc4ccn5ncnc5c4)c(C)c3F)c2n1 [Example 175, 1-((1R,4R)-5-(4-((4-([1,2,4]triazolo[1,5-a]pyridin-7-yloxy)-2-fluoro-3-methylphenyl)amino)pyrido[3,2-d]pyrimidin-6-yl)-2,5-diazabicyclo[2.2.2]octan-2-yl)prop-2-en-1-one]
pIC50 (ErbB2 WT): 6.77
pIC50 (EGFR): 5.27
pIC50 [1]: 7.65
pIC50 (EGFR wild type (EGFR WT)): 5.62
efflux ratio at 2 h, 1 µM (BCRP): 4.8
efflux ratio at 2 h, 1 µM (MDR1 (P-gp)): 3.3

CC#CC(=O)N1CC[C@@H]2C[C@H]1CN2c1ccc2ncnc(Nc3ccc(Oc4ccn5ncnc5c4)c(C)c3F)c2n1 [Example 176, 1-((1 S,5R)-6-(4-((4-([1,2,4]triazolo[1,5-a]pyridin-7-yloxy)-2-fluoro-3-methylphenyl)amino)pyrido[3,2-d]pyrimidin-6-yl)-2,6-diazabicyclo[3.2.1]octan-2-yl)but-2-yn-1-one]
pIC50 (ErbB2 WT): 7.31
pIC50 (EGFR): 5.17
pIC50 [1]: 7.61
pIC50 (EGFR wild type (EGFR WT)): 5.44
efflux ratio at 2 h, 1 µM (BCRP): 2.4
efflux ratio at 2 h, 1 µM (MDR1 (P-gp)): 1

C=CC(=O)N1CC[C@@H]2C[C@H]1CN2c1ccc2ncnc(Nc3cc(Cl)c(Oc4ccn5ncnc5c4)cc3F)c2n1 [Example 177, 1-((1 S,5R)-6-(4-((4-([1,2,4]triazolo[1,5-a]pyridin-7-yloxy)-5-chloro-2-fluorophenyl)amino)pyrido[3,2-d]pyrimidin-6-yl)-2,6-diazabicyclo[3.2.1]octan-2-yl)prop-2-en-1-one]
pIC50 (ErbB2 WT): 8.01
pIC50 (EGFR): 6.89
pIC50 [1]: 8.24
pIC50 (EGFR wild type (EGFR WT)): 6.81
efflux ratio at 2 h, 1 µM (BCRP): 3.6
efflux ratio at 2 h, 1 µM (MDR1 (P-gp)): 1.9

C=CC(=O)N1C[C@@H](c2ccc3ncnc(Nc4ccc(Oc5ccc6c(c5)ncn6C)c(C)c4F)c3n2)C[C@@H]1C [Example 191, 1-((2S,4S)-4-(4-((2-fluoro-3-methyl-4-((1-methyl-1H-benzo[d]imidazol-5-yl)oxy)phenyl)amino)pyrido[3,2-d]pyrimidin-6-yl)-2-methylpyrrolidin-1-yl)prop-2-en-1-one]
pIC50 (ErbB2 WT): 7.57
pIC50 (EGFR): 5.74
pIC50 [1]: 7.82
pIC50 (EGFR wild type (EGFR WT)): 5.54
efflux ratio at 2 h, 1 µM (BCRP): 2.5
efflux ratio at 2 h, 1 µM (MDR1 (P-gp)): 0.9

C=CC(=O)N1C[C@H](c2ccc3ncnc(Nc4ccc(Oc5ccc6c(c5)ncn6C)c(C)c4F)c3n2)C[C@H]1C [Example 193, 1-((2R,4R)-4-(4-((2-fluoro-3-methyl-4-((1-methyl-1H-benzo[d]imidazol-5-yl)oxy)phenyl)amino)pyrido[3,2-d]pyrimidin-6-yl)-2-methylpyrrolidin-1-yl)prop-2-en-1-one]
pIC50 (ErbB2 WT): 7.21
pIC50 (EGFR): ≤ 5.00
pIC50 [1]: 7.80
pIC50 (EGFR wild type (EGFR WT)): ≤ 5.30
efflux ratio at 2 h, 1 µM (BCRP): 3.4
efflux ratio at 2 h, 1 µM (MDR1 (P-gp)): 0.7

C=CC(=O)N1[C@@H]2CC[C@H]1C[C@@H](c1ccc3ncnc(Nc4ccc(Oc5ccn6ncnc6c5)c(Cl)c4F)c3n1)C2 [Example 214, 1-((1R,3r,5S)-3-(4-((4-([1,2,4]triazolo[1,5-a]pyridin-7-yloxy)-3-chloro-2-fluorophenyl)amino)pyrido[3,2-d]pyrimidin-6-yl)-8-azabicyclo[3.2.1]octan-8-yl)prop-2-en-1-one]
pIC50 (ErbB2 WT): 7.67
pIC50 (EGFR): 6.55
pIC50 [1]: 7.60
pIC50 (EGFR wild type (EGFR WT)): ≤ 5.30
efflux ratio at 2 h, 1 µM (BCRP): 3.8
efflux ratio at 2 h, 1 µM (MDR1 (P-gp)): 1.4

C=CC(=O)N1C[C@H]2CC[C@@H](C1)[C@@H]2c1ccc2ncnc(Nc3cc(C)c(Oc4ccn5ncnc5c4)cc3F)c2n1 [Example 222, 1-((1R,5S,8r)-8-(4-((4-([1,2,4]triazolo[1,5-a]pyridin-7-yloxy)-2-fluoro-5-methylphenyl)amino)pyrido[3,2-d]pyrimidin-6-yl)-3-azabicyclo[3.2.1]octan-3-yl)prop-2-en-1-one]
pIC50 (ErbB2 WT): 6.88
pIC50 (EGFR): 5.23
pIC50 [1]: 6.51
pIC50 (EGFR wild type (EGFR WT)): ≤ 5.30
efflux ratio at 2 h, 1 µM (BCRP): 1.4
efflux ratio at 2 h, 1 µM (MDR1 (P-gp)): 1.3
